Experimental data: ChEMBL document CHEMBL1201862, “PubChem BioAssay data set” (2004)
Active and inactive are the calls of the source.

Key:
[1] = system: CHO-K1; assay: (§1) Counterscreen for antagonists of the orexin 1 receptor (OX1R; HCRTR1): Homogeneous time resolved fluorescence (HTRF)-based cell-based dose response assay to identify antagonists of the parental CHO-K1 cell line. [Related pubchem assays (depositor defined):AID434989, AID435008, AID463079, AID485270, AID492963, AID492964, AID492965, AID493232, AID504699, AID504701]; format: functional; conditions: Cricetulus griseus
[2] = as §1, with “Fluorescence-based” for “Homogeneous time resolved fluorescence (HTRF)-based”, “cell-based high throughput” for “cell-based”, “CHO” for “CHO-K1”; format: functional
[3] = target: T1, Orexin/Hypocretin receptor type 1 (Homo sapiens, UniProt O43613); assay: Homogeneous Time Resolved Fluorescence (HTRF)-based cell-based high throughput dose response assay for antagonists of the orexin 1 receptor (OX1R; HCRTR1). [Related pubchem assays (depositor defined):AID434989, AID435008, AID463079, AID485270, AID492963, AID492964, AID492965, AID493232, AID504717, AID504718]; format: functional
T1 sequence (O43613 whole entry): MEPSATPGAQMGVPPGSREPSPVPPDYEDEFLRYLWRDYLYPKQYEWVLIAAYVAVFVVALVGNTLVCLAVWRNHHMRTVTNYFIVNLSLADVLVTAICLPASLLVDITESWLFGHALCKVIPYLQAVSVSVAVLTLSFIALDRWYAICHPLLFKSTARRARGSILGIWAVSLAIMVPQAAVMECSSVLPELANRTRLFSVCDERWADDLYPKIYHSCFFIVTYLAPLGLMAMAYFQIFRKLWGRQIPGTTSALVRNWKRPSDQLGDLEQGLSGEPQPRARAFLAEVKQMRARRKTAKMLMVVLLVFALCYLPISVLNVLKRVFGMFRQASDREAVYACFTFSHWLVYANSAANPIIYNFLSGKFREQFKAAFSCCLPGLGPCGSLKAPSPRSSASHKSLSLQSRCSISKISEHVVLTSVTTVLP

[4] = target: T1, Orexin/Hypocretin receptor type 1; assay: Fluorescence-based cell-based high throughput dose response assay for antagonists of the orexin 1 receptor (OX1R; HCRTR1). [Related pubchem assays (depositor defined):AID434989, AID435008, AID463079, AID485270, AID492963, AID492964, AID492965, AID493232, AID504717, AID504718]; format: functional
[5] = A Cell Based Secondary Assay To Explore Cytotoxicity of Compounds that Sensitize Mycobacterium Tuberculosis to Beta-Lactam Antibiotics.; format: functional
[6] = target: T2, Calpain-2 catalytic subunit (Sus scrofa, UniProt P43367); assay: pig calpain II inhibitor potency, dose response, biochemical, fluorogenic peptide substrate (AID 1420); format: functional
T2 sequence (P43367 whole entry): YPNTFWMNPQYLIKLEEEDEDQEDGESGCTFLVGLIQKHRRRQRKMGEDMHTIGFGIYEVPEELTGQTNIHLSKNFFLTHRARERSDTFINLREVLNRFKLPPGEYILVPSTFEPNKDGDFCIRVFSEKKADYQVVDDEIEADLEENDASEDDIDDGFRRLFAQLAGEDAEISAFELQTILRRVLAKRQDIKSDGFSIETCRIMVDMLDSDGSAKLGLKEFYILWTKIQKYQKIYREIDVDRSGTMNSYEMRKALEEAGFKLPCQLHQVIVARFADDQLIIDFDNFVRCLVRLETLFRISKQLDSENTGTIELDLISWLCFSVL

[7] = target: T3, Mannose-6-phosphate isomerase (Homo sapiens, UniProt P34949); assay: human PMI inhibitors, high substrate, primary screen, biochemical, fluorescence intensity, high mannose 6-phosphate (AID 1220)
T3 sequence (P34949 whole entry): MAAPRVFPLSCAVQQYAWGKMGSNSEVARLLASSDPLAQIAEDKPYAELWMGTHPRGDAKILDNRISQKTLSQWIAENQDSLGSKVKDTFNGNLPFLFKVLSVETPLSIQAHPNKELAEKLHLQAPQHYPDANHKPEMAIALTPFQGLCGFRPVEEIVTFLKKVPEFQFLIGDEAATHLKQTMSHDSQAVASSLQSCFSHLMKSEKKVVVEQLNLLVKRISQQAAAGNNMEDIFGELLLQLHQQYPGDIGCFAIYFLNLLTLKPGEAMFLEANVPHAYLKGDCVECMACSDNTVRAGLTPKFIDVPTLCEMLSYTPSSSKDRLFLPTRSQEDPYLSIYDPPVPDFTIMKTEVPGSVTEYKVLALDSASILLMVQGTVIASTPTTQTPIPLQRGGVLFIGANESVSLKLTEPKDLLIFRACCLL

[8] = target: FAD-linked sulfhydryl oxidase ALR (Homo sapiens, UniProt P55789); assay: inhibitors of human ALR sulfhydryl oxidase, dose response, biochemical, H2O2 detection, luminescence, cherry-pick (AID 493248)
Chain of FAD-linked sulfhydryl oxidase ALR (P55789 whole entry): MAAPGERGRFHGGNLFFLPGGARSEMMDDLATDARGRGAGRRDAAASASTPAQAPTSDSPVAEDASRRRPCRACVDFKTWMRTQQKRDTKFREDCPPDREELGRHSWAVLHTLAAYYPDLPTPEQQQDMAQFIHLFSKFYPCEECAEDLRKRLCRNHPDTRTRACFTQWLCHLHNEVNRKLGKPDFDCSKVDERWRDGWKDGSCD

[9] = A cytotoxicity screen of small molecule inhibitors of the PhoP region in Salmonella typhi identified in the primary screen. [Related pubchem assays: 1850, 1864, 1985 ]; format: functional
[10] = target: T4, Melanin-concentrating hormone receptor 1 (Homo sapiens, UniProt Q99705); assay: Late-stage fluorescence-based counterscreen for antagonists of the G-protein coupled receptor 7 (GPR7): cell-based dose response assay to identify antagonists of the melanin-concentrating hormone receptor 1 (MCHR1). [Related pubchem assays (depositor defined):AID1861, AID1880, AID1952, AID2148, AID2251, AID2257, AID485339]; format: functional
T4 sequence (Q99705 whole entry): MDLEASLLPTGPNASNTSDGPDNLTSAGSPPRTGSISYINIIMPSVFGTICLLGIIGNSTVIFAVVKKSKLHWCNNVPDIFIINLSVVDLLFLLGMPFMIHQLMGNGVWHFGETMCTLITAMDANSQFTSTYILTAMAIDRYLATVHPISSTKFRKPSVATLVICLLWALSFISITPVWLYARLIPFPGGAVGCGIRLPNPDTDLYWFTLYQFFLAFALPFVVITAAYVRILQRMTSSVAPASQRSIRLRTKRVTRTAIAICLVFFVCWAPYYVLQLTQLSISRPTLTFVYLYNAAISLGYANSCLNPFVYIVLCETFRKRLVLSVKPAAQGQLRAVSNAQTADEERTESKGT

[11] = system: Streptococcus sp. 'group A'; assay: growth inhibition of control SK(-) GAS strain, dose response, counter-screen for streptokinase expression inhibitor project, luminescence, kanamycin, BacTiterGlo, confirmation (AID 1900); format: functional, organism-based
[12] = system: BJ; assay: cytotoxicity toward BJ-TERT fibroblasts, dose response, cell-based, RAS-independent, luminescence (AID 1933); format: functional; conditions: Homo sapiens
[13] = target: T5, Voltage-gated N-type calcium channel alpha-1B subunit/Amyloid beta A4 precursor protein-binding family A member 1 (Homo sapiens, UniProt Q00975+Q02410); format: protein assay
T5 sequence (Q00975 whole entry): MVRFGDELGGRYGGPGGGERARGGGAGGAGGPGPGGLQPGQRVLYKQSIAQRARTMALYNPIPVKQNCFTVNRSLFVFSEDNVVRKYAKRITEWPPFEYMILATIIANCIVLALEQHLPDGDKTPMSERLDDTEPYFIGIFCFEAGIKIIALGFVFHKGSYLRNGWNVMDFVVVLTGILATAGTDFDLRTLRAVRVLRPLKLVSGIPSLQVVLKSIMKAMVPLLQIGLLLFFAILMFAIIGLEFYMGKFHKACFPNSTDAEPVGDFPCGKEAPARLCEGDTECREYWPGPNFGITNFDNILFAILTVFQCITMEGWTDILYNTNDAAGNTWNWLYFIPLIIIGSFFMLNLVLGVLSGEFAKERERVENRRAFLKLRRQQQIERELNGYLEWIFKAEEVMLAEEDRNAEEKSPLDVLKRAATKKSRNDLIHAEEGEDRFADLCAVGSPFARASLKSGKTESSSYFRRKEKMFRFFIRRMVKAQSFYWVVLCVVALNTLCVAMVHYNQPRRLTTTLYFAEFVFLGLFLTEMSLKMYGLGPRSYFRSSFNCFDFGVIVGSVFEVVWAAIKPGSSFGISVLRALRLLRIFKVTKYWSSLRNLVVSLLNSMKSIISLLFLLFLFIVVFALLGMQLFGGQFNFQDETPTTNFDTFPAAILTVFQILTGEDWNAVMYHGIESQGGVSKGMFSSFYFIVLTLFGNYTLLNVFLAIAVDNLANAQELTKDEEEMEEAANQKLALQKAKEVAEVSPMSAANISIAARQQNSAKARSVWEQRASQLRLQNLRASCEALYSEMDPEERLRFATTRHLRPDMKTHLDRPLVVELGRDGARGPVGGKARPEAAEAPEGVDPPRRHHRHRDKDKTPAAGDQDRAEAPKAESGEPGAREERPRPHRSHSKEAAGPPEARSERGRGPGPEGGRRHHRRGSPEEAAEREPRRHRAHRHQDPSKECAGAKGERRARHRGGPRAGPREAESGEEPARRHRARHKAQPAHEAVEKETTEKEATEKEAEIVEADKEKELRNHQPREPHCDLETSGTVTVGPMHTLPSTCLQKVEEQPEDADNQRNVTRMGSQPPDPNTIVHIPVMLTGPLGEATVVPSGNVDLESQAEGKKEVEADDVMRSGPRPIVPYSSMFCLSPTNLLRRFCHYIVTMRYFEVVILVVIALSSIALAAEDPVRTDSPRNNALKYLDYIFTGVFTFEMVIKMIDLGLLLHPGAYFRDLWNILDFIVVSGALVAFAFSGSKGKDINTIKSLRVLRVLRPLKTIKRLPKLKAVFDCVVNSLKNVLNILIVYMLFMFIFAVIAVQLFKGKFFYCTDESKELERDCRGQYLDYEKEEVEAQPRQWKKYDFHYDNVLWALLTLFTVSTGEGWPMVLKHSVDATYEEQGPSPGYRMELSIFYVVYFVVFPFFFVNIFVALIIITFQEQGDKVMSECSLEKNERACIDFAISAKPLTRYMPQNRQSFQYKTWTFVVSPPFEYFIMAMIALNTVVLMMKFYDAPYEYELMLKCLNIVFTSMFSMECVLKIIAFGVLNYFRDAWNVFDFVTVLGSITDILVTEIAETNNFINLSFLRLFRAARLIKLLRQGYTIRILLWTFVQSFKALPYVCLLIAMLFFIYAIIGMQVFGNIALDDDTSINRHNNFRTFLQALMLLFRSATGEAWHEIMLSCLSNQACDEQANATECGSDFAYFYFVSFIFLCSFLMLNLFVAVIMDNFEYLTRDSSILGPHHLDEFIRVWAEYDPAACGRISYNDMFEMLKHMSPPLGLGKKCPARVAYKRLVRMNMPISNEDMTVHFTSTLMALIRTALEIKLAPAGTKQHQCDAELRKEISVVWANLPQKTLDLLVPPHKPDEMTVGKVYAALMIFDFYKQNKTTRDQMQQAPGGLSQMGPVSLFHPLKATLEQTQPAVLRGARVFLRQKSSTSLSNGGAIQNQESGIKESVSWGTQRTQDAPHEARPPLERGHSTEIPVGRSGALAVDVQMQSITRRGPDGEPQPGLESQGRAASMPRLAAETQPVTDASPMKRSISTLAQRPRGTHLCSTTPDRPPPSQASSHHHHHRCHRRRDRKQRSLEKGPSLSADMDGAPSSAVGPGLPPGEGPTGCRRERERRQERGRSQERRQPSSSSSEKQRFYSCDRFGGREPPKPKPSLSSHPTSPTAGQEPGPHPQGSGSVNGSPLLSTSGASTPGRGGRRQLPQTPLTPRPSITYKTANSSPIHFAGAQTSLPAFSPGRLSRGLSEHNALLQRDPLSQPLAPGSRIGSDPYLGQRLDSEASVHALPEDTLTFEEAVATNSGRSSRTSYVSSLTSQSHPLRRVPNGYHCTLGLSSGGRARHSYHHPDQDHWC
T5 sequence (Q02410 whole entry): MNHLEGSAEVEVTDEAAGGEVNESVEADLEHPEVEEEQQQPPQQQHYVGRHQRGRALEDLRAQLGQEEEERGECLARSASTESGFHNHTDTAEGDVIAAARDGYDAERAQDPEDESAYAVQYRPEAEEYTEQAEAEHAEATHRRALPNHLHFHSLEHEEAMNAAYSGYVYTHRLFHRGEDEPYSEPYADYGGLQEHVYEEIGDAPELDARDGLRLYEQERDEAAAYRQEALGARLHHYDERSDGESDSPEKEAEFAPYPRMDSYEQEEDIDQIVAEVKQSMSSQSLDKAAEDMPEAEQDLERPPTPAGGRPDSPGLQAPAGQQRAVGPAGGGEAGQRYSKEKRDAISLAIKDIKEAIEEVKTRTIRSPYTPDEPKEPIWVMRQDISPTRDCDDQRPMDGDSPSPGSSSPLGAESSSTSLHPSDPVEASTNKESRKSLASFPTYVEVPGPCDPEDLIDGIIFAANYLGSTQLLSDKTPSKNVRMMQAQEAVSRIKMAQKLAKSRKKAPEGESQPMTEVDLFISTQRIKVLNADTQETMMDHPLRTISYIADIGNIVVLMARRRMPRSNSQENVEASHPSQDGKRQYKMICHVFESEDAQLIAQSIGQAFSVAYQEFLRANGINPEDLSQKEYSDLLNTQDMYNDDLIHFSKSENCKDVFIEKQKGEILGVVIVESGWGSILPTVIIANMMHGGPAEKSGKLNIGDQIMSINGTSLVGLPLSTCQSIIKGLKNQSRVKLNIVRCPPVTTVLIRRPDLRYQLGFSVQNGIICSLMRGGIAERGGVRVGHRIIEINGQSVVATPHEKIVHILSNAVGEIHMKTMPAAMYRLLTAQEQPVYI

[14] = target: T6, Streptokinase A (Streptococcus pyogenes serotype M1, UniProt P10520); assay: S. pyogenes streptokinase expression inhibitors, potency, dose response, plasminogen activation absorbance, OD405 (AID 1914); format: functional, Streptococcus pyogenes M1 GAS;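 also: secreted streptokinase activity via plasminogen activation per viability signal from cell pellet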
T6 sequence (P10520 whole entry): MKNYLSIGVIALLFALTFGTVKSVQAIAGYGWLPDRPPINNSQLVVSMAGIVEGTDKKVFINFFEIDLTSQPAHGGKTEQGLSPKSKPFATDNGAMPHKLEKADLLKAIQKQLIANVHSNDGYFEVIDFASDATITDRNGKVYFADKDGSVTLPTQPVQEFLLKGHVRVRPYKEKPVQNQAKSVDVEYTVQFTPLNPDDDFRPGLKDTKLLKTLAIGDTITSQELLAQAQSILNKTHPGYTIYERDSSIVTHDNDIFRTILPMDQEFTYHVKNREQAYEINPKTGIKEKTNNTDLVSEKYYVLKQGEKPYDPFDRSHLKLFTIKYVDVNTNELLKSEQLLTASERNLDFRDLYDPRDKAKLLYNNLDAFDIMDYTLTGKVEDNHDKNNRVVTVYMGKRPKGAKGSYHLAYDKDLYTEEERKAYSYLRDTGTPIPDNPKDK

[15] = system: BJ; assay: cells; format: functional, cell-based; conditions: Homo sapiens
[16] = target: T5, Voltage-gated N-type calcium channel alpha-1B subunit/Amyloid beta A4 precursor protein-binding family A member 1; format: protein assay; remark: listed apart in the source
[17] = system: BJ; assay: cytotoxicity toward BJ-TERT-LT-ST fibroblasts, dose response, cell-based, RAS-independent, luminescence (AID 1935); format: functional; conditions: Homo sapiens;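 also: BJ fibroblasts immortalized with TERT plus LT and ST oncogenes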
[18] = cytotoxicity toward DRD oncogenic fibroblasts, dose response, cell-based, non-viral oncogenic, luminescence (AID 1934); format: functional; conditions: Homo sapiens
[19] = system: Streptococcus; assay: Group A Streptococcus viability loss, dose response, counter-screen for streptokinase expression inhibitor project, luminescence, BacTiterGlo (AID 1915); format: functional, organism-based;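 also: potency for reduction of bacterial viability or growth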
[20] = Luminescence Cell-Based Dose Retest to Confirm Inhibitors of Cancer Stem Cells. [Related pubchem assays (depositor defined):AID2717, AID2721]; format: functional; conditions: Homo sapiens
[21] = cytotoxicity in HEK-293T cells, dose response, cytotoxicity control for BCR NF-kB inhibitor project, luminescence, B-cell screen hits (AID 489021); format: functional, cell-based;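 also: HEK-293T cells carrying an NF-kB luciferase reporter; cells exposed to compound for about 14 hours before viability readout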
[22] = target: T7, Galanin receptor type 3 (Homo sapiens, UniProt O60755); assay: Fluorescence-based cell-based primary high throughput dose response assay to identify antagonists of the Galanin Receptor 3 (GalR3).; format: functional
T7 sequence (O60755 whole entry): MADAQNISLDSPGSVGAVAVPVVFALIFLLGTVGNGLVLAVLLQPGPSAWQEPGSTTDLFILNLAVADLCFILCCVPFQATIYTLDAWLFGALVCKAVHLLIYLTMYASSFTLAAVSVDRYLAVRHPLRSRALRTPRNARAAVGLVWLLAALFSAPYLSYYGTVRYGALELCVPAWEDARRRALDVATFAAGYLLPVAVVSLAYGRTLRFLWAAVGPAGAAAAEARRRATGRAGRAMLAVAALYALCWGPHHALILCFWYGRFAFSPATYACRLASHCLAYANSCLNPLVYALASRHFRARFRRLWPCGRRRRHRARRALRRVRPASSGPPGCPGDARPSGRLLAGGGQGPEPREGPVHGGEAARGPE

[23] = cells; format: functional, cell-based; conditions: HEK-CNG
[24] = target: T8, Neuropeptides B/W receptor type 1 (Homo sapiens, UniProt P48145); assay: Fluorescence-based dose response cell-based high throughput screening assay to identify antagonists of the G-protein coupled receptor 7 (GPR7). [Related pubchem assays: 1952 (Screening assay (GPR7 antagonists).), 1880 (Summary AID.)]; format: functional
T8 sequence (P48145 whole entry): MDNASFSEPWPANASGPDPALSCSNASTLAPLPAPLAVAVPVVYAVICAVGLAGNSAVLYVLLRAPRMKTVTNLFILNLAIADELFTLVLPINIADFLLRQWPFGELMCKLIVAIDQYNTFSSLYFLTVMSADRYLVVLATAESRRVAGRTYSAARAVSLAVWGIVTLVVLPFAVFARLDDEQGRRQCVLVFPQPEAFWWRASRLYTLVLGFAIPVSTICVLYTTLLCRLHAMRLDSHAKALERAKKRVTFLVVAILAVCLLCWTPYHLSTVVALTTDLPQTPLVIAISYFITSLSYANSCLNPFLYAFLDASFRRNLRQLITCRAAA

[25] = target: T4, Melanin-concentrating hormone receptor 1; assay: Fluorescence-based counterscreen for antagonists of the G-protein coupled receptor 7 (GPR7): cell-based high throughput dose response assay to identify antagonists of the melanin-concentrating hormone receptor 1 (MCHR1).; format: functional
[26] = target: Trypsin (Sus scrofa, UniProt P00761); assay: porcine trypsin inhibitors, dose response, selectivity assay for Rce1 protease inhibitor project, biochemical, quenched peptide fluorescence, cherry-pick (AID 488789)
Chain of Trypsin (P00761 whole entry): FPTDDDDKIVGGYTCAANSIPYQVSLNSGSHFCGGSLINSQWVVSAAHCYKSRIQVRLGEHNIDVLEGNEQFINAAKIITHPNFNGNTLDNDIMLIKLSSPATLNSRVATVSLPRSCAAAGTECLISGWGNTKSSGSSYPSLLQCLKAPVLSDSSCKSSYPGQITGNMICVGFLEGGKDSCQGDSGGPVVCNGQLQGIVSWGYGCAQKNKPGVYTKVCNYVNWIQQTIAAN

[27] = target: T9, CAAX prenyl protease 2 (Homo sapiens, UniProt Q9Y256); assay: human Rce1 protease inhibitors, dose response, biochemical, yeast membranes, quenched-peptide fluorescence, cherry-pick (AID 588849)
T9 sequence (Q9Y256 whole entry): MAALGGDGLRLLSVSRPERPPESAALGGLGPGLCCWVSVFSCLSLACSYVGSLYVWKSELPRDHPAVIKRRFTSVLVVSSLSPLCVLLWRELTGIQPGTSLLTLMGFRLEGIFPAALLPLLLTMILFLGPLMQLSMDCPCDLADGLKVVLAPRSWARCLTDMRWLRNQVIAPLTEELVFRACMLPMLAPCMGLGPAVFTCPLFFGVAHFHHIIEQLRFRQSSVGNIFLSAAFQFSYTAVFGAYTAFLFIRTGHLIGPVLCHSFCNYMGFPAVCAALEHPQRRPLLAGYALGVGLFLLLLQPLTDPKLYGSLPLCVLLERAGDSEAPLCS

CN(Cc1c(C(=O)N/N=C/c2cccc(O)c2)nnn1-c1nonc1N)c1ccccc1
IC50 [1]: > 66.2 µM (inactive) | IC50 [2]: 24.2 µM (inactive) | IC50 [3]: 1.04 µM (active) | IC50 [4]: 5.74 µM (active)

O=C(CCNc1ccccc1)c1cccc([N+](=O)[O-])c1
CC50 [5]: 25.6 µM (active) | IC50 [6]: 14.1 µM (not active) | IC50 [7]: 39.5 µM (active) | AC50 [8]: 5.58 µM (active)

CC(=O)c1c(N2CCN(c3cccc(Cl)c3)CC2)nc(=S)n(-c2ccccc2)c1C
EC50 [9]: > 50 µM (active)

COc1ccc(Oc2c(-c3cccs3)cnn(-c3ccc(C)cc3)c2=O)cc1
IC50 [10]: > 20 µM (inactive)

Cc1ccccc1-c1cc(C(=O)Nc2sc(C(=O)OC(C)C)c(C)c2C#N)c2ccccc2n1
EC50 [11]: 14.6 µM (active) | EC50 [12]: > 150 µM (not active) | IC50 [13]: 17.9 µM (active) | EC50 [14]: > 150 µM (not active) | EC50 [15]: > 150 µM (inconclusive) | IC50 [16]: > 50 µM (inactive) | EC50 [17]: > 75 µM (inconclusive) | EC50 [18]: 42.3 µM (active) | EC50 [19]: 26 µM (active) | AC50 [20]: 0.246 µM (active) | IC50 [21]: 45.6 µM (inactive) | IC50 [22]: 0.967 µM (active) | EC50 [23]: > 29.9 µM (inactive)

Cc1ccc(S(=O)(=O)Nc2ccc3c(c2)n(C)c(=O)n3C)cc1
IC50 [21]: > 80 µM (inactive)

COc1ccc(Oc2c(Cl)cnn(-c3ccc(C(C)(C)C)cc3)c2=O)cc1
IC50 [10]: 2.7 µM (active)

CCN=C(S)Nc1cccc(S(=O)(=O)Nc2ccccc2OC)c1
EC50 [9]: > 50 µM (active)

Cc1ccccc1NC(=O)C1CCCN(c2ncnc3onc(-c4ccc(F)cc4)c23)C1 (centres undefined)
IC50 [24]: > 43.8 µM (not active) | IC50 [25]: > 43.8 µM (not active)

CCOc1cc(-c2nc3c(C)cccn3c2NCC2CCCO2)ccc1O.CNC (centres undefined)
AC50 [26]: 12.7 µM (active) | AC50 [27]: 15.1 µM (active)

Cc1ccc(CN2C(=O)c3ccccc3Sc3ccc(C(=O)NCCCN4CCOCC4)cc32)cc1
IC50 [24]: 6.89 µM (active) | IC50 [25]: 10.4 µM (not active)

COc1ccc(N(C(=O)c2cccnc2)S(=O)(=O)c2cccc([N+](=O)[O-])c2)cc1
EC50 [9]: > 50 µM (active)

Cc1ccc(C(=O)CSc2nnc(COc3ccccc3)o2)cc1
IC50 [21]: > 80 µM (inactive)
